From article PMC3545278 (Journal of pharmaceutical and biomedical analysis, 2012)
Counter-ions that a name gives are not always drawn. Like-named read-outs stand apart in the source and are kept apart here.

Columns and labels:
[1] = Plasma stability, 37°C for 20 min, human plasma; type: in vitro ADME; details: 5% CO2, 20 min, mean ± SEM
[2] = Rapid equilibrium dialysis; type: in vitro ADME, mouse; details: for fraction unbound at 4 h, 10 μM: mouse, plasma, pH 7.4
[3] = human, cited from earlier work
[4] = Rapid equilibrium dialysis; type: in vitro ADME; details: human, plasma, pH 7.4
Ultrafiltration [5] = details: human; for recovery at 20 min, 10 μM: human plasma; for fraction unbound at 20 min, 10 μM: plasma
Ultrafiltration [6] = type: in vitro ADME, mouse; details: for recovery at 20 min, 10 μM / fraction unbound at 20 min, 10 μM: mouse; for recovery at 20 min, 10 μM / % Recovery from plasma / %PPB (UF): mouse plasma; for fraction unbound at 20 min, 10 μM: plasma; for % Recovery from plasma / %PPB (UF): 10 μM, mean ± SEM, n=3; for % Recovery from plasma: UF mass balance; for %PPB (UF): mass balance
[7] = longer than 20 min; cited from earlier work
[8] = Plasma stability as stated in text, species not specified; type: in vitro ADME; details: 20 minute incubation at 37°C
in vitro = details: human

| SMILES | %Stability [1] | fraction unbound at 4 h, 10 μM [2] | fraction unbound at 4 h, 10 μM [4] | recovery at 20 min, 10 μM (Ultrafiltration [5]) | fraction unbound at 20 min, 10 μM (Ultrafiltration [5]) | recovery at 20 min, 10 μM (Ultrafiltration [6]) | fraction unbound at 20 min, 10 μM (Ultrafiltration [6]) | other results |
| --- | --- | --- | --- | --- | --- | --- | --- | --- |
| CC(=O)Nc1ccc(O)cc1 [Acetaminophen] | 98.6±2.6% | 0.611 | 0.79 | 102.6 ± 0.9% | 0.733 | 97.2 ± 2.5% | 0.701 | %PPB (Literature) ([3]; ref 20): 24±7 [20] % |
| C[C@]12CCC(=O)C=C1CC[C@@H]1[C@@H]2[C@@H](O)C[C@@]2(C)[C@H]1CC[C@]2(O)C(=O)CO [Hydrocortisone] | 98.5±1.1% | 0.412 | 0.279 | 104 ± 3.3% | 0.368 | 102 ± 4% | 0.519 | %PPB (Literature) ([3]; ref 8): 65%; %PPB (Literature) ([3]; ref 23): 80% |
| O=C(Nc1cccc2cccnc12)c1ccc(N2C(=O)[C@@H]3[C@H](C2=O)[C@@H]2C=C[C@H]3C2)cc1 [IWR1] | – | – | – | – | – | – | – | stability in plasma over longer periods of time [7]: known instability; stability in plasma [8]: stable; % Recovery from plasma (Ultrafiltration [6]): 81.1±2.1%; %PPB (UF) (Ultrafiltration [6]): 95.5±0.9% |
| COc1ccc2c(c1)c(CC(=O)O)c(C)n2C(=O)c1ccc(Cl)cc1 [Indomethacin] | 111.0±8.8% | 0.013 | 0.002 | 89.7 ± 7.2% | 0.004 | 99 ± 9.7% | 0.011 | %PPB (Literature) ([3]; ref 23): 99 [23] % |
| O=S(=O)(Nc1ccccc1)c1ccc(NC(=S)Nc2ccccc2)cc1 [LED209E] | – | – | – | – | – | – | – | %PPB (RED) ([2]; mouse plasma, 10 μM, 4 hours at 37°C, mean ± SEM, n=3): 99.2±0.1%; % Recovery from plasma (Ultrafiltration [6]): 101.0±1.5%; %PPB (UF) (Ultrafiltration [6]): 99.3±0.1% |
| CC[C@H](C)C(=O)O[C@H]1C[C@@H](C)C=C2C=C[C@H](C)[C@H](CC[C@@H]3C[C@@H](O)CC(=O)O3)[C@H]21 [Lovastatin] | 96.2±5.1% | 0.084 | 0.004 | 87.6 ± 3.6% | 0.026 | 82.1 ± 8.8% | 0.029 | %PPB (Literature) ([3]; ref 21): >95 [21] % |
| OC(CNc1ccccc1)Cn1c2ccc(Br)cc2c2cc(Br)ccc21 (stereo not drawn) [P7C3] | – | – | – | – | – | – | – | % Recovery from plasma (Ultrafiltration [6]): 100.0±9.4% |
| CC(=O)O[C@H]1C(=O)[C@@]2(C)[C@H]([C@H](OC(=O)c3ccccc3)[C@]3(O)C[C@H](OC(=O)[C@H](O)[C@@H](NC(=O)c4ccccc4)c4ccccc4)C(C)=C1C3(C)C)[C@]1(OC(C)=O)CO[C@@H]1C[C@@H]2O [Paclitaxel] | 104.8±2.0% | 0.024 | 0.03 | 87.6 ± 2.2% | 0.132 | 90.8 ± 3.2% | 0.046 | %PPB (Literature) ([3]; ref 23): 88 [23] % |
| CC(C)NCC(O)COc1cccc2ccccc12 (stereo not drawn) [Propranolol HCl] | 98.7±1.2% | 0.264 | 0.166 | 100 ± 1.6% | 0.328 | 104 ± 7.6% | 0.326 | %PPB (Literature) ([3]; ref 8): 65–70 [8] % |
| Nc1ccc(S(=O)(=O)Nc2ncccn2)cc1 [Sulfadiazine] | – | 0.47 | – | – | – | 108 ± 2% | 0.403 | – |
| COc1cc(NS(=O)(=O)c2ccc(N)cc2)nc(OC)n1 [Sulfadimethoxine] | – | 0.044 | – | – | – | 109 ± 1.1% | 0.04 | – |
| Cc1ccnc(NS(=O)(=O)c2ccc(N)cc2)n1 [Sulfamerazine] | – | 0.195 | – | – | – | 107 ± 1.8% | 0.184 | – |
| Cc1nnc(NS(=O)(=O)c2ccc(N)cc2)s1 [Sulfamethiazole] | 101.9±0.4% | 0.353 | 0.108 | 99.4 ± 1.7% | 0.184 | 104 ± 1.2% | 0.348 | %PPB (Literature) ([3]; ref 22): 85–90 [22] % |
| Nc1ccc(S(=O)(=O)Nc2nccs2)cc1 [Sulfathiazole] | – | 0.418 | – | – | – | 108 ± 2.1% | 0.402 | – |
| CC(C)(C)NCC(O)c1cc(O)cc(O)c1 (stereo not drawn) [Terbutaline] | 106.5±3.3% | 0.638 | 0.627 | 104 ± 2.1% | 0.819 | 99.6 ± 8.4% | 0.81 | %PPB (Literature) ([3]; ref 21): 20%; %PPB (Literature) ([3]; ref 23): 25% |
| CCCCNC(=O)NS(=O)(=O)c1ccc(C)cc1 [Tolbutamide] | 102.2±0.8% | – | – | 97.4 ± 0.2% | – | 106 ± 3.1% | – | – |
| CC[C@]1(O)C[C@@H]2CN(CCc3c([nH]c4ccccc34)[C@@](C(=O)OC)(c3cc4c(cc3OC)N(C)[C@H]3[C@@](O)(C(=O)OC)[C@H](OC(C)=O)[C@]5(CC)C=CCN6CC[C@]43[C@@H]65)C2)C1 [Vinblastine] | 97.5±3.1% | 0.073 | 0.113 | 79.1 ± 2.1% | – | 87.5 ± 2.5% | 0.174 | – |
| CS(=O)(=O)c1ccc(C(=O)Nc2ccc(Cl)c(-c3ccccn3)c2)c(Cl)c1 [Vismodegib] | – | 0.009 | – | – | – | 94.3 ± 3.7% | 0.025 | – |
| O=C(CCCCCCC(=O)Nc1ccccc1)NO [Vorinostat] | 101.1±1.9% | 0.536 | 0.241 | 100 ± 2.1% | 0.396 | 98.7 ± 0.6% | 0.622 | – |
| CC(=O)CC(c1ccccc1)c1c(O)c2ccccc2oc1=O (stereo not drawn) [Warfarin] | 100.4±4.5% | – | – | – | – | 99.8 ± 3.9% | – | recovery at 20 min, 10 μM (in vitro): 94.2 ± 3.8% |
